Source: US11793741B2, “Topical composition” (Conopco, Inc., priority 2017, dated 2023)

Tested on: psoriasin
Test: Generation of psoriasin (AMP marker) by human keratinocytes, ELISA of cell culture supernatant
Format: cell-based
Details: NHEK cells, 72 hours; for Fold change in psoriasin levels over control: control (Example A) = 1
Method: The experiment was done with the above-mentioned cells with passage between 3 and 4. The cells were seeded (35,000 cells/well) in 24 well plate with keratinocyte growth media (KGM) obtained from Invitrogen®. The plate was then incubated at 37±2° C. in a CO2 incubator for 48 hours. Step 2: After 48 hours of incubation, cell differentiation was induced by replacing media with fresh KGM supplemented with 2 mM calcium chloride solution. This was then followed by incubation at 37±2° C. in a CO2 incubator for 48 hours. Step 3: After that, the cells were treated with niacinamide and the compound of formula I, i.e. N-cyclopropyl nicotinamide, in varying concentration as outlined in table 1 below with keratinocyte growth media supplemented with 2 mM calcium chloride solution. Step 4: After the above treatment, cells were again incubated at 37±2° C. in a CO2 incubator for 72 hours. Step 5: After 72 hours of incubation, cell culture supernatant from each well was collected in a sterile tube. The samples were then stored at −80° C. until used for testing psoriasin secretion by standard ELISA technique using psoriasin ELISA kit obtained from Circulx® (No: CY-8073). In the current experiment, psoriasin was used as a marker for AMP. Step 6: The ELISA method was performed by using 100 μL of cell culture supernatant from each sample. The data is expressed in terms of fold change over control (no treatment: Example A). The fold change in psoriasin levels in case of control (example A) is taken to be equal to 1 fold. Any fold change in psoriasin obtained due to treatments outlined in all the other examples was over and above the 1 fold change obtained from the control.

Compound	Fold change in psoriasin over and above 1 fold of the control (100 μg/mL active)	Fold change in psoriasin levels over control (100 μg/mL active)	Fold change in psoriasin levels over control (250 μg/mL active)	Fold change in psoriasin levels over control (500 μg/mL active)
NC(=O)c1cccnc1 [Example B, Niacinamide]	0.26 fold	1.26 fold	1.50 fold	1.44 fold
O=C(NC1CC1)c1cccnc1 [Example 1, N-cyclopropyl nicotinamide]	–	1.61 fold	1.88 fold	2.16 fold
